Values quoted from earlier work as cited in patent US7517540B2, “Cranberry seed oil extract and compositions containing components thereof” (priority 1999, dated 2009).

Key:
MDA-MB-435 = conditions: for Inhibition of proliferation, MDA-MB-435 (Table 5): alone, 1:1 or 1:1:1 combinations; for IC50, inhibition of proliferation of MDA-MB-435: MDA-MB-435 (estrogen receptor-negative), combinations with tamoxifen 1:1
MCF-7 = conditions: for Inhibition of proliferation, MCF-7 (Table 5): alone, 1:1 or 1:1:1 combinations; for IC50, inhibition of proliferation of MCF-7: MCF-7 (estrogen receptor-positive), combinations with tamoxifen 1:1
[1] = fed to hypercholesterolemic chicken

SMILES	Inhibition of proliferation, MDA-MB-435 (Table 5) (MDA-MB-435)	Inhibition of proliferation, MCF-7 (Table 5) (MCF-7)	IC50, inhibition of proliferation of MDA-MB-435 (MDA-MB-435)	IC50, inhibition of proliferation of MCF-7 (MCF-7)	Hypocholesterolemic potency compared [1]
COc1ccc(-c2cc(=O)c3c(OC)c(OC)c(OC)c(OC)c3o2)cc1 [Tangeretin only, Tangeretin]	0.5	0.4			
Cc1c(C)c2c(c(C)c1O)CC[C@@](C)(CCC[C@H](C)CCC[C@H](C)CCCC(C)C)O2 [α-Tocopherol]			>1000 µg/mL	125 ± 3 µg/mL	
CC(C)=CCC/C(C)=C/CC/C(C)=C/CC[C@]1(C)CCc2c(C)c(O)c(C)c(C)c2O1 [α-Tocotrienol]			90 ± 3 µg/mL	6 ± 0.3 µg/mL	
CC(C)=CCC/C(C)=C/CC/C(C)=C/CC[C@]1(C)CCc2cc(O)c(C)c(C)c2O1 [γ-Tocotrienol]	30	2	30 ± 2 µg/mL	2 ± 0.1 µg/mL	more potently hypocholesterolemic than α-tocopherol, TRF, or α-tocotrienol
CC(C)=CCC/C(C)=C/CC/C(C)=C/CC[C@]1(C)CCc2cc(O)cc(C)c2O1 [δ-Tocotrienol]			90 ± 3 µg/mL	2 ± 0.05 µg/mL	more potently hypocholesterolemic than α-tocopherol, TRF, or α-tocotrienol
